Laboratory results: patent US9757375B2, “Compounds that inhibit human DNA ligases and methods of treating cancer” (University of Maryland, Baltimore, priority 2007, dated 2017)
Where two headings read alike, the source gives them in different places.

Key:
MCF10A cells = assay: Screen for potentiation of DNA damaging agents (MMS, camptothecin, cis-platinum, 3 aminobenzamide, ionizing radiation); format: cell-based, human; conditions: for IC50 ratios of non- and 3-AB treated cells MCF10A: compound alone vs combination with 3-AB (2 mM); for IC50 ratios of non- and 3-AB treated cells MCF10A / MMS: Ratios of IC50 MCF10A: 1 = no sensitization; for Radiosensitizers: IC50 ratios MCF10A: ionizing radiation; for MMS: Ratios of IC50 MCF10A: compound alone vs combination with MMS (100 μM); for % growth inhibition MCF10A [2 Gy] 5-15 uM: with 2 Gy ionizing radiation, tick mark only
Method in brief: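 HCT116 colon cancer and MCF10A breast epithelial cells received compounds at 15 μM or 50 μM one day after plating; for ionizing radiation, cells were pre-incubated 1 h with 50 μM compound before 2 Gy. After 3 days, cells were lysed with Igepal CA-630 plus SYBR green, and DNA fluorescence served as the proliferation read-out.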

hLigIV/XRCC4 = hLigIV/XRCC4 (Homo sapiens, UniProt P49917); assay: Radioactive gel-based DNA ligation assay; format: biochemical; design: concentration or dose not given beside the values
hLigIV/XRCC4, sequence (P49917 whole entry, the tested form may be a part): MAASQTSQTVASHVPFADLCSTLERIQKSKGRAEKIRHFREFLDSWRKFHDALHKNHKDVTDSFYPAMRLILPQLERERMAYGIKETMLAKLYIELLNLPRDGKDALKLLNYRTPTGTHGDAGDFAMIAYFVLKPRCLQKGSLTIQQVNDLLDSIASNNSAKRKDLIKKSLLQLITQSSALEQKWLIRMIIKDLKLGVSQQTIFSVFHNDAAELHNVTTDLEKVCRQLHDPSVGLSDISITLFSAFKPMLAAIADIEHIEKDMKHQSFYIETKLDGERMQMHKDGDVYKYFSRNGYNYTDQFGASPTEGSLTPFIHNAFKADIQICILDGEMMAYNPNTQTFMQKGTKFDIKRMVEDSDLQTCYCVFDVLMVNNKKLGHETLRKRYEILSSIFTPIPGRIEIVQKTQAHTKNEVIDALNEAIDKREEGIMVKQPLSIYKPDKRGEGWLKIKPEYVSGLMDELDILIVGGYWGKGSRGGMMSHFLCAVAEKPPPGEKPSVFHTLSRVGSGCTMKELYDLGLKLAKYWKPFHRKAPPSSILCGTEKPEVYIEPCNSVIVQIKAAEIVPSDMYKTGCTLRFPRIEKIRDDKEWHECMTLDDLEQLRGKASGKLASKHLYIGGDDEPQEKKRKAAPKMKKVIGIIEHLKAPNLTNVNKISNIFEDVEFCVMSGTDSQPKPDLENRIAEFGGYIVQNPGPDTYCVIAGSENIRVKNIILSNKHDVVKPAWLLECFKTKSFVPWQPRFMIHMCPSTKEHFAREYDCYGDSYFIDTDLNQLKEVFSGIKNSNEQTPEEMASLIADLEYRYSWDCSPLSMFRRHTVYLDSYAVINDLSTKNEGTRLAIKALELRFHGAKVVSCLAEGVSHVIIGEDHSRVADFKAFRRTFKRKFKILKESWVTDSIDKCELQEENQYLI
hLigIV/XRCC4, sequence (Q13426 whole entry partner, the tested form may be a part): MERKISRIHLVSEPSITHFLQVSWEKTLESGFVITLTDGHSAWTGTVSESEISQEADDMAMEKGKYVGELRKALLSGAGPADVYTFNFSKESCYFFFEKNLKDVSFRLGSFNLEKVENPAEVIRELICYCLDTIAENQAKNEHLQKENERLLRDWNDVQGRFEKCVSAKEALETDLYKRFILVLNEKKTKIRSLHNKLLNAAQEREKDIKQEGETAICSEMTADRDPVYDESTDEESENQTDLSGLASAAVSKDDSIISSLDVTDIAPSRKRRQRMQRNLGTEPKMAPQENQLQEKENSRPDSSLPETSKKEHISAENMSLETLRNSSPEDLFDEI

HeLa cell extract [1] = assay: Cell extract assay of nonhomologous end-joining (1 kb cohesive-ended fragment); format: biochemical, human; conditions: 100 μmol/L (also 25 μM in the source), FIG. 4C
Protocol: (§1) Extracts were prepared from human cervical cancer HeLa cells as described previously (27, 31). For base excision repair (BER) assays, the extraction buffer contained 100 mmol/L of KCl, whereas for nonhomologous end-joining (NHEJ) assays, extraction buffer contained 400 mmol/L of KCl. Where indicated, DNA ligases were immunodepleted from the extracts as described (32) using protein A or G Sepharose beads (GE Healthcare) and anti-Lig1, anti-LigIII (GeneTex), or anti-LigIV (ABCAM) antibodies. Depletion was confirmed by immunoblotting.
To assay NHEJ (24), a 1 kb end-labeled BamHI fragment (0.1 pmol; (33)). and 20 μg of extract were incubated in ligation buffer (final volume, 20 μL), for 120 min at 25° C. either in the presence or absence of ligase inhibitors (100 μmol/L). DNA fragments were resolved by separation through a 0.8% agarose gel. Labeled DNA fragments were detected in the dried gel by phosphorImager analysis (Molecular Dynamics).
Linear DNA molecules with short complementary single strand overhangs are repaired by non-homologous end joining that is completed by DNA ligase IV (27). A HeLa extract was incubated with a labeled linear cohesive-ended 1 kb fragment with cohesive ends repair in the absence or presence of Compounds 67, 82 and 189 (25 μM).). Lane 7, DNA ligase I was immunodepleted from the extract prior to the assay. […], DNA ligase III was immunodepleted from the extract prior to the assay. […], DNA ligase IV was immunodepleted from the extract prior to the assay. After separation by native agarose gel electrophoresis, the linear DNA substrate, re-circularized substrate and dimers trimers etc of the 1 kb substrate were detected by phosphorimaging (27). […]

HeLa cell extract [2] = assay: Cell extract assay of short patch base excision repair (incised AP site); format: biochemical, human; conditions: 100 μmol/L (also 25 μM in the source), FIG. 4B
Protocol: as §1
A labeled 5′-flap substrate (0.1 pmol; (31)) was incubated with 20 μg of extract in the absence or presence of ligase inhibitors (100 μmol/L) at 25° C. for 5 min in ligation buffer (final volume, 50 μL). For short patch BER, a linear duplex containing a single uracil residue was preincised by treatment with uracil DNA glycosylase and APE1 (both from NEB) to generate a strand break with 3′ hydroxyl and 5′ deoxyribose phosphate termini. Reactions (50 μL) containing 0.3 pmol of the incised DNA substrate, 10 μCi of [α^32P]dTTP, and 20 μg of extract either in the absence or presence of ligase inhibitors (100 μmol/L) were incubated at 25° C. for 2 min in ligation buffer. After separation by denaturing polyacrylamide gel electrophoresis, labeled oligonucleotides were detected in the dried gel by phosphorImager analysis (Molecular Dynamics).
A natural AP site within a linear DNA molecule (FIG. 4B) is repaired primarily by short patch base excision repair that is completed by DNA ligase 111 (15). FIG. 4B, the linear DNA substrate with an incised AP site (0.3 pmol) was incubated with a cell extract (20 μg) and [a32P]dTTP in the absence (lane 1, Mock) or presence of 100 μmol/L of L189 (lane 2), L67 (lane 3), or L82 (lane 4). hLigI (lane 5, I-dp) and hLigIIIα (lane 6, III-dp) were immunodepleted from the cell extracts prior to incubation with the DNA substrate. […] After separation by denaturing gel electrophoresis, labeled fragments corresponding to a single nucleotide insertion and fully repaired product were detected by phosphorimaging (16). […]

HCT116 cells = assay: MTT cell growth assay; format: cell-based, human; conditions: for IC50: Homo sapiens
Method in brief: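 HCT116 cells (1200 per well) adhered overnight, then were exposed to serially diluted compounds for 5 days. MTT was added for 4 h, formazan dissolved in isopropanol and absorbance read at 560 nm as the growth measure.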

[3] = HCT-116, cell growth, compound alone, read-out: IC50 (μM) HCT116
[4] = HCT-116, sections 'high concentrations (~50 μM)' and 'active in vitro that decreased cell growth', same figures given in μM elsewhere in Table 6, read-out: IC50 HCT116 (head without unit)

O=C(O)CSc1cc(Cl)c2nonc2c1[N+](=O)[O-] [Compound 64]
IC50 ratios of non- and 3-AB treated cells MCF10A (MCF10A cells): 2
Radiosensitizers: IC50 ratios MCF10A (MCF10A cells): 1.2
% activity Inhibition hLigIV gel (hLigIV/XRCC4): 66%

Cc1c(Br)cc(NCC(=O)N/N=C\c2cc([N+](=O)[O-])ccc2O)cc1Br [Compound 67]
IC50 ratios of non- and 3-AB treated cells MCF10A (MCF10A cells): 1.7
MMS: Ratios of IC50 MCF10A (MCF10A cells): 1.2
% growth inhibition MCF10A [2 Gy] 5-15 uM (MCF10A cells): ✓
joining of linear DNA molecules (non-homologous end joining) (HeLa cell extract [1]): had no effect
repair of the natural AP site (short patch base excision repair) (HeLa cell extract [2]): reduce repair of the natural AP site
IC50 (HCT116 cells; [3]): 8 µM
IC50 (HCT116 cells; [4]): 8 µM

O=c1[nH]ncc(N/N=C\c2ccc(O)c([N+](=O)[O-])c2)c1Cl [Compound 82]
joining of linear DNA molecules (non-homologous end joining) (HeLa cell extract [1]): had no effect
repair of the natural AP site (short patch base excision repair) (HeLa cell extract [2]): has no effect

O=C(Cn1cnc([N+](=O)[O-])n1)N/N=C/c1ccc(O)cc1O [Compound 151]
MMS: Ratios of IC50 MCF10A (MCF10A cells): 1.8
Radiosensitizers: IC50 ratios MCF10A (MCF10A cells): 1
% growth inhibition MCF10A [2 Gy] 5-15 uM (MCF10A cells): ✓
IC50 (HCT116 cells; [3]): 22 µM
IC50 (HCT116 cells; [4]): 22 µM

O=C1Nc2ccccc2Oc2cc([N+](=O)[O-])cc([N+](=O)[O-])c21 [Compound 180]
MMS: Ratios of IC50 MCF10A (MCF10A cells): 1
IC50 (HCT116 cells; HCT-116, read-out: IC50 HCT116 (head without unit)): 3 µM
IC50 (HCT116 cells; [3]): 12 µM

CS(=O)(=O)NNC(=O)C(=O)NNc1ccccc1 [Compound 184]
inhibition of cell proliferation of HCT116 at 50 μM (MTT) (HCT116 cells; 50 μM, numbers printed under HCT116 in r92-r106: 16, 64, 124, 130, 165, 184 (30%), 195, 197, 198, 212): 184 (30%)

Nc1nc(S)nc(O)c1/N=C/c1ccccc1 [Compound 189]
joining of linear DNA molecules (non-homologous end joining) (HeLa cell extract [1]): reduced joining of the linear DNA molecules
repair of the natural AP site (short patch base excision repair) (HeLa cell extract [2]): reduce repair of the natural AP site
% activity Inhibition hLigIV gel (hLigIV/XRCC4): 80%

Cc1oc(C(=O)O)cc1CSCc1cc(C(=O)O)c(C)o1 [Compound 197]
% activity Inhibition hLigIV gel (hLigIV/XRCC4): 100%

O=C(c1ccc(O)cc1)c1ccccc1O [Compound 200]
IC50 ratios of non- and 3-AB treated cells MCF10A (MCF10A cells): ID (1.2)
MMS: Ratios of IC50 MCF10A (MCF10A cells): ID (1)
IC50 (HCT116 cells; [3]): ~10 µM
IC50 (HCT116 cells; [4]): 10 to 150 µM
